Assay results published in article PMC12181424, “A genetically tractable branch of environmental Pedobacter from the phylum Bacteroidota represents a hotspot for natural product discovery” (Scientific Reports, 2025).
Non-standard residues stand in square brackets, D forms with d. Residues, ends and D or L forms follow the SMILES beside them. *: point of attachment. Isovaleryl = CC(C)CC(=O)*; ΔVal = CC(C)=C(N)C(=O)O; X1 = CC[C@H](C)C(=O)*

Legend:
[1] = system: P. cryoconitis PAMC 27485; assay: Antibiotic sensitivity screen of wild-type strain (choice of selection marker); type: cell-based, Pedobacter cryoconitis; conditions: P. cryoconitis PAMC 27485 wild type
Description: (§1) We built a random transposon insertion plasmid (pCRYO1 (Fig. S2)) based on a HIMAR transposon pSAMbt system, initially designed for Bacteroides thetaiotaomicron in which we introduced the constitutive P. cryoconitis promoters of gyrB and rpl13 and used erythromycin as a resistance marker[41] (Fig. 3A). We obtained erythromycin-resistant clones by conjugation and electroporation and confirmed the presence of the ermR gene by colony PCR (Material and Methods).
(§2) To genetically modify P. cryoconitis, we first screened different antibiotics (streptomycin, ampicillin, kanamycin, apramycin, chloramphenicol, and erythromycin) against P. cryoconitis PAMC 27485 and P. cryoconitis DSM 14825^T. Only erythromycin (100 µg/ml) and chloramphenicol (150 µg/ml) were effective and selected as markers. A transposon plasmid, pCRYO-01 was modified based on pSAM bt[30] by assembling PCR-amplified regions upstream of the P. cryoconitis PAMC 27485 gyrB (AMQ00279.1, 228 bps) and rpl13 genes (AMQ00867.1, 178 bps) with the erythromycin resistance (ermR) and the transposase genes via Gibson Assembly. PCR reactions were carried out using Q5 polymerase (New England Biolabs) as specified by the manufacturer. Conjugation experiments were performed using E. coli WM3064/pCRYO-01 and P. cryoconitis (overnight cultures) on LB, POM, and R2A (with 5 mM final MgCl2) agar with different donor-recipient ratios (1:1, 2:1, 3:1) for 48 h. Cells were scraped off, serially diluted, and plated on R2A agar plates with erythromycin (50, 100, 150, and 200 µg/ml). Erythromycin-resistant colonies were tested for ermR presence and plasmid backbone absence by colony PCR. A 3:1 donor-recipient ratio at 23 °C yielded the highest number of transformants. Dilution of the inoculum at 10^− 1 or 10^− 2 was optimal for single colonies, with more transformants observed in P. cryoconitis PAMC 27485 compared to P. cryoconitis DSM 14825^T. For electroporation, P. cryoconitis PAMC 27485 cells (OD 0.4) were made competent by washing 3-times with ice-cold 10% glycerol (centrifugation at 5000 rpm). Aliquots of 50 µl were mixed with pCRYO1. After electroporation (12.5 kV/cm), cells were cultured without antibiotics for 5 h, then plated on R2A with 150 µg/ml erythromycin. Colonies appeared within 3 days, with 100% carrying the transposon cassette, though efficiency was lower than with conjugation. Electroporation of competent cells stored at -80 °C was also possible.

[2] = system: P. cryoconitis DSM 14825^T; assay: as above; type: cell-based, Pedobacter cryoconitis; conditions: P. cryoconitis DSM 14825^T wild type
Description: as §1, §2

[3] = system: bacterial and fungal indicator strains; assay: Screening against bacterial and fungal indicator strains (whole panel, as summarised in the text); type: cell-based; conditions: summary in the text of Table S11; no growth inhibitory effects
[4] = system: Escherichia coli ATCC35218; type: cell-based
[5] = system: Septoria tritici MUCL45407; type: cell-based
[6] = system: Candida albicans FH2173; type: cell-based
[7] = system: human cysteine protease cathepsin L; assay: Cysteine protease inhibition testing; type: biochemical; conditions: tested concentration 20 µM; procedure of Brinkmann et al.
[8] = system: rhodesain; conditions: tested concentration 20 µM; procedure of Brinkmann et al.
Description: The cryopeptins are linear lipopeptides containing the non-proteinogenic amino acid dehydrovaline. This amino acid is a rare building block, and its occurrence is yet limited to linear peptides. For instance, dehydrovaline is found in cytotoxic yakuamides from the sponge Ceratopsion sp[42]. and in the myxobacterial antibiotic myxovalargin[43]. […] In addition, 4 and 5 underwent screening against the human cysteine proteases cathepsin B and L, and rhodesain, the cysteine protease of Trypanosoma brucei rhodesiense according to the procedure described in[45].
The minimum inhibitory concentrations (MIC) of pure compounds were determined as described by Orban et al.3 Pure compounds were screened against Escherichia coli ATCC35218, Mycobacterium smegmatis ATCC607, Staphylococcus aureus ATCC33592, Candida albicans FH2173 and Septoria tritici MUCL45407. Protease testings (human cysteine proteases cathepsin B and L, trypanosomal cysteine protease rhodesain) were performed at concentrations of 20 μM as described in Brinkmann et al.4.

[9] = system: human cysteine protease cathepsin B; assay: Cysteine protease inhibition testing; type: biochemical; conditions: tested concentration 20 µM; procedure of Brinkmann et al.
[10] = system: Mycobacterium smegmatis ATCC607; type: cell-based
[11] = system: Staphylococcus aureus ATCC33592; type: cell-based

## CC[C@H]1OC(=O)[C@H](C)[C@@H](O[C@H]2C[C@@](C)(OC)[C@@H](O)[C@H](C)O2)[C@H](C)[C@@H](O[C@@H]2O[C@H](C)C[C@H](N(C)C)[C@H]2O)[C@](C)(O)C[C@@H](C)C(=O)[C@H](C)[C@@H](O)[C@]1(C)O [erythromycin]
[1]
  concentration that inhibited the growth of the wild-type strain: 100 µg/mL
[2]
  concentration that inhibited the growth of the wild-type strain: 100 µg/mL

## CC[C@H](C)C(=O)N[C@@H](Cc1ccccc1)C(=O)NC(C(=O)N[C@@H](CCCNC(=N)N)C(=O)NC(C(=O)N[C@@H](CC(C)C)C(=O)O)=C(C)C)=C(C)C [cryopeptin D (4)] (X1-F[ΔVal]R[ΔVal]L-OH)
[3]
  Minimal inhibitory concentration against bacterial and fungal indicator strains: > 128 µg/mL
[4]
  MIC Escherichia coli ATCC 35218: >128 µg/mL
[5]
  MIC Septoria tritici MUCL45407: >128 µg/mL
[6]
  MIC Candida albicans FH2173: >128 µg/mL
[7]
  protease inhibitory activity, cathepsin L: no protease inhibitory activity was observed
[8]
  protease inhibitory activity, rhodesain: no protease inhibitory activity was observed
[9]
  protease inhibitory activity, cathepsin B: no protease inhibitory activity was observed
[10]
  MIC Myobacterium smegmatis ATCC607: >128 µg/mL
[11]
  MIC Staphylococcus aureus ATCC 33592: >128 µg/mL

## CC(C)=C(NC(=O)[C@H](Cc1ccccc1)NC(=O)CC(C)C)C(=O)N[C@@H](CCCNC(=N)N)C(=O)NC(C(=O)N[C@@H](CC(C)C)C(=O)O)=C(C)C [cryopeptin E (5)] (Isovaleryl-F[ΔVal]R[ΔVal]L-OH; N-terminus and C-terminus assumed)
[4]
  MIC Escherichia coli ATCC 35218: >128 µg/mL
[5]
  MIC Septoria tritici MUCL45407: >128 µg/mL
[6]
  MIC Candida albicans FH2173: >128 µg/mL
[7]
  protease inhibitory activity, cathepsin L: no protease inhibitory activity was observed
[8]
  protease inhibitory activity, rhodesain: no protease inhibitory activity was observed
[9]
  protease inhibitory activity, cathepsin B: no protease inhibitory activity was observed
[10]
  MIC Myobacterium smegmatis ATCC607: >128 µg/mL
[11]
  MIC Staphylococcus aureus ATCC 33592: >128 µg/mL

## O=C(N[C@H](CO)[C@H](O)c1ccc([N+](=O)[O-])cc1)C(Cl)Cl [chloramphenicol]
[1]
  concentration that inhibited the growth of the wild-type strain: 150 µg/mL
[2]
  concentration that inhibited the growth of the wild-type strain: 150 µg/mL
